Bounds are passed on as bounds.

Sequence of p110β/p85α (P42338 whole entry, looked up): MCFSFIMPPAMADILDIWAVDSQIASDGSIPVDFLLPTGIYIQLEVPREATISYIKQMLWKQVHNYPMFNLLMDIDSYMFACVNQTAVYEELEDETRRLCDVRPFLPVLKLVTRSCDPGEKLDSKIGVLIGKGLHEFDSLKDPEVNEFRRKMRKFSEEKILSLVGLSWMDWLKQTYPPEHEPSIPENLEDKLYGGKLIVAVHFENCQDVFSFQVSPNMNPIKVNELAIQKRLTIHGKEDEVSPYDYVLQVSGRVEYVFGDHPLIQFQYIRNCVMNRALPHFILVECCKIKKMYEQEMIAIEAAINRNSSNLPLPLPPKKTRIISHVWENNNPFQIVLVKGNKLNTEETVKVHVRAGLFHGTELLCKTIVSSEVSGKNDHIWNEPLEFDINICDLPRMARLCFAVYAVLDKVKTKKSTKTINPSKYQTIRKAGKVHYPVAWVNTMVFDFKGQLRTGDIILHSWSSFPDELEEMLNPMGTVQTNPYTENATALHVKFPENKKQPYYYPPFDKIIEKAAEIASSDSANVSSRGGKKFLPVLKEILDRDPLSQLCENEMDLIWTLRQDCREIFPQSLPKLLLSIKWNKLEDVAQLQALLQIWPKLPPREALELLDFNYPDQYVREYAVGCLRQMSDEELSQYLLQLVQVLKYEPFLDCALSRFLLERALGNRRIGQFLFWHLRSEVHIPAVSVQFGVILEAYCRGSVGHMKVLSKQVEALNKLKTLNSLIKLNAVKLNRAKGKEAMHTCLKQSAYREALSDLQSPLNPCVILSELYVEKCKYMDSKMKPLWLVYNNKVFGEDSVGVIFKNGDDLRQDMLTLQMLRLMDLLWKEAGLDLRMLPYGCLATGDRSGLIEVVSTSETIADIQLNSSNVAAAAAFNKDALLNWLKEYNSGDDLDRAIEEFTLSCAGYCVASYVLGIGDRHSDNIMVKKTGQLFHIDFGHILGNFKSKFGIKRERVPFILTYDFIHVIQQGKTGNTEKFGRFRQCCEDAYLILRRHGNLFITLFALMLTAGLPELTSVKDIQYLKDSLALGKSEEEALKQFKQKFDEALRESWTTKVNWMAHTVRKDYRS
Sequence of p110δ/p85α (O00329 whole entry): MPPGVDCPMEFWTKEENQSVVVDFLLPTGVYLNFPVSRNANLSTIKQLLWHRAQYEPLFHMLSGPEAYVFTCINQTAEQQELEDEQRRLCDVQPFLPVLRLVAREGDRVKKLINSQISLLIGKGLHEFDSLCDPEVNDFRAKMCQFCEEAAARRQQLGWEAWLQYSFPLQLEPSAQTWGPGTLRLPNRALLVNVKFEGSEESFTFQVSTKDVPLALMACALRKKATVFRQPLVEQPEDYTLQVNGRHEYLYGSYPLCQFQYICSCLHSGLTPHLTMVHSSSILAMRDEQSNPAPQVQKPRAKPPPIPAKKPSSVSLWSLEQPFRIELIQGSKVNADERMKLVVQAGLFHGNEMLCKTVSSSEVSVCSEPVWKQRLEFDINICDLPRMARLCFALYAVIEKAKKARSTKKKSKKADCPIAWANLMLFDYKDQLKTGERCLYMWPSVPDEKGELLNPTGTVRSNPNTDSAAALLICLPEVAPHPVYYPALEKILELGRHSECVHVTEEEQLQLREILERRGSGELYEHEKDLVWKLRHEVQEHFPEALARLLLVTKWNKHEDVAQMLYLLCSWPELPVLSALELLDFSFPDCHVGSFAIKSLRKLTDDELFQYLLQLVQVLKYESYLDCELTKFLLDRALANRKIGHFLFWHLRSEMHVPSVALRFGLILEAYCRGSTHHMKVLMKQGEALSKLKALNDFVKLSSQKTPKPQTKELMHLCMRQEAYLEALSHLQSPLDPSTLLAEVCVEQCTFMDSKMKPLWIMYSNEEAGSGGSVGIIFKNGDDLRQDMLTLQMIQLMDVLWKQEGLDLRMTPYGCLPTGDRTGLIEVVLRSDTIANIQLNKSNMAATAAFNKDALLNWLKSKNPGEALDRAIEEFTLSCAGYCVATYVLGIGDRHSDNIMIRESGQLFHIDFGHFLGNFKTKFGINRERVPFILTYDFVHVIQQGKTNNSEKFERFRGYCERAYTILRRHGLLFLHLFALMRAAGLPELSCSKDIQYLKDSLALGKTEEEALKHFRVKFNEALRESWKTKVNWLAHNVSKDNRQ
Sequence of p110δ/p85α (P27986 whole entry partner): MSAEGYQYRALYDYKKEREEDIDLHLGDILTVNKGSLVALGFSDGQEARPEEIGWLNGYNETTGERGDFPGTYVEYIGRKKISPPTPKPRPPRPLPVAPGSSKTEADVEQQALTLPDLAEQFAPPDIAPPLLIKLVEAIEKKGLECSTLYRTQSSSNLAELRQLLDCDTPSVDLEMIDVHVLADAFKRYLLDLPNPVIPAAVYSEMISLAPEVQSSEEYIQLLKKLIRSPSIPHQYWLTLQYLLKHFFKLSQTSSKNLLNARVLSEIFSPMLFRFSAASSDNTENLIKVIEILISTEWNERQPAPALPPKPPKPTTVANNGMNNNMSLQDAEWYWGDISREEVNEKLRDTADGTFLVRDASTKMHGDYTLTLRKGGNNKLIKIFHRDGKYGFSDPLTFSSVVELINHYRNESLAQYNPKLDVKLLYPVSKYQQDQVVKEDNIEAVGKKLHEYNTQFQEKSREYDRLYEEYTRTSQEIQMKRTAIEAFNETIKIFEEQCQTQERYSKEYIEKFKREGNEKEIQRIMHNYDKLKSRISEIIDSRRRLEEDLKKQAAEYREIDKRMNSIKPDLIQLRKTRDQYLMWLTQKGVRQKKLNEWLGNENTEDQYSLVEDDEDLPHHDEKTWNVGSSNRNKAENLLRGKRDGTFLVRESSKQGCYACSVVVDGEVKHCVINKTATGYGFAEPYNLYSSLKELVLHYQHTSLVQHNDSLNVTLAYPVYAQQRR

One test has as its target p110δ/p85α (Homo sapiens (Human), UniProt O00329). The experiment in a line: PI3K δ inhibition assay (TLC lipid kinase or HTRF).
Conditions: not given
Type of test: biochemical. The procedure:
(§1) Class I PI3-Ks can be either purchased (p110α/p85α, p110β/p85α, p110δ/p85α from Upstate, and p110γ from Sigma) or expressed as previously described (Knight et al., 2004). IC50 values are measured using either a standard TLC assay for lipid kinase activity (described below) or a high-throughput membrane capture assay. Kinase reactions are performed by preparing a reaction mixture containing kinase, inhibitor (2% DMSO final concentration), buffer (25 mM HEPES, pH 7.4, 10 mM MgCl2), and freshly sonicated phosphatidylinositol (100 μg/ml). Reactions are initiated by the addition of ATP containing 10 μCi of γ-32P-ATP to a final concentration 10 or 100 μM and allowed to proceed for 5 minutes at room temperature. For TLC analysis, reactions are then terminated by the addition of […] 1N HCl followed by 160 μl CHCl3:MeOH (1:1). The biphasic mixture is vortexed, briefly centrifuged, and the organic phase is transferred to a new tube using a gel loading pipette tip precoated with CHCl3. This extract is spotted on TLC plates and developed for 3-4 hours in a 65:35 solution of n-propanol:1M acetic acid. The TLC plates are then dried, exposed to a phosphorimager screen (Storm, Amersham), and quantitated. For each compound, kinase activity is measured at 10-12 inhibitor concentrations representing two-fold dilutions from the highest concentration tested (typically, 200 μM).
(§2) Other commercial kits or systems for assaying PI3-K activities are available. The commercially available kits or systems can be used to screen for inhibitors and/or agonists of PI3-Ks including but not limited to PI 3-Kinase α, β, δ, and γ. Anr exemplary system is PI3-Kinase (human) HTRF™ Assay from Upstate. […] Briefly, the assay is a time resolved FRET assay that indirectly measures PIP3 product formed by the activity of a PI3-K. The kinase reaction is performed in a microtitre plate (e.g., a 384 well microtitre plate). The total reaction volume is approximately 20 ul per well. In the first step, each well receives 2 ul of test compound in 20% dimethylsulphoxide resulting in a 2% DMSO final concentration. Next, approximately 14.5 ul of a kinase/PIP2 mixture (diluted in 1× reaction buffer) is added per well for a final concentration of 0.25-0.3 ug/ml kinase and 10 uM PIP2. The plate is sealed and incubated for 15 minutes at room temperature. To start the reaction, 3.5 ul of ATP (diluted in 1× reaction buffer) is added per well for a final concentration of 10 uM ATP. The plate is sealed and incubated for 1 hour at room temperature. The reaction is stopped by adding 5 ul of Stop Solution per well and then 5 ul of Detection Mix is added per well. The plate is sealed, incubated for 1 hour at room temperature, and then read on an appropriate plate reader. Data is analyzed and IC50s are generated using GraphPad Prism 5.
For `Nc1cc(-c2nn(Cc3cc4ccccc4nc3-c3ccccc3)c3ncnc(N)c23)ccn1` [Compound 173], the IC50 was greater than 1000 nM.

With `Nc1ncnc2c1c(-c1cc(O)cc(F)c1)nn2Cc1cccnc1N1CCCC1` [Compound 124], the IC50 was greater than 1000 nM.

For the compound `CCC(c1cc2ccccc2nc1-c1ccccc1)n1cnc2c(N)ncnc21` (stereo not drawn) [Compound 37], the half-maximal inhibitory concentration (IC50) was greater than 1000 nM.

Compound `CC(=O)Nc1nc2ccc(-c3nn(Cc4cc5ccccc5nc4-n4ccnc4C)c4ncnc(N)c34)cc2s1` [Compound 170] registered an IC50 of less than 100 nM.

In the case of `CC(c1cc2ccccc2nc1N1CCN(C)CC1)n1cnc2c(N)ncnc21` (stereo not drawn) [Compound 89], the concentration for half-maximal inhibition (IC50) is 100 to 1000 nM.

In the case of `Nc1ncc(-c2nn(Cc3cc4ccccc4nc3-c3ccccc3)c3nccc(N)c23)cn1` [Compound 160], the IC50 was in the range of 100 to 1000 nM.

Compound `COc1ccccc1-c1nc2ccccc2cc1Cn1nc(-c2cccc(O)c2)c2c(N)ncnc21` [Compound 14] had an IC50 of 100 to 1000 nM.

`CCC(c1cc2ccccc2nc1N1CCN(C)CC1)n1cnc2c(N)ncnc21` (stereo not drawn) [Compound 90] registered an IC50 of 100 to 1000 nM.

For `Nc1ncnc2c1c(-c1ccccc1O)nn2Cc1cc2ccccc2nc1N1CCCC1` [Compound 21], the half-inhibitory concentration (IC50) was greater than 1000 nM.

With `C[C@@H](O)C#Cc1nn(Cc2nc3ccccc3nc2N2CCCC2)c2ncnc(N)c12` [Compound 106], the IC50 fell in the range of 100 to 1000 nM.

In the case of `CC(=O)Nc1cccc(-c2nn(Cc3cc4ccccc4nc3N3CCCC3)c3ncnc(N)c23)c1` [Compound 27], the IC50 was greater than 1000 nM.

`NC(=O)/C=C/c1nn(Cc2cc3ccccc3nc2-c2ccccc2F)c2ncnc(N)c12` [Compound 194] came in with an IC50 of 100 to 1000 nM.

Regarding `Nc1ncnc2c1c(-c1cc(O)cc(F)c1)nn2CCn1c(-c2ccccc2)nc2ccccc21` [Compound 126], the IC50 is greater than 1000 nM.

For `CC(=O)Nc1nc2ccc(-c3nn(Cc4cc5ccccc5nc4-c4ccccc4F)c4ncnc(N)c34)cc2[nH]1` [Compound 183], the half-maximal inhibitory concentration (IC50) was 100 to 1000 nM.

With `Nc1ncnc2c1c(-c1cccnc1)nn2Cc1cc2ccccc2nc1N1CCCC1` [Compound 62], the IC50 was 100 to 1000 nM.

As to `NC(=O)c1cccc(-c2nn(Cc3cc4ccccc4nc3N3CCCC3)c3ncnc(N)c23)c1` [Compound 28], the concentration for half-maximal inhibition (IC50) is greater than 1000 nM.

`Cc1ccccc1-c1ncccc1Cn1nc(-c2cc(O)cc(F)c2)c2c(N)ncnc21` [Compound 121] gave a half-inhibitory concentration (IC50) greater than 1000 nM.

The compound `N#Cc1nn(Cc2cc3ccccc3nc2-c2ccccc2F)c2ncnc(N)c12` [Compound 189] gave an IC50 greater than 1000 nM.

On to `C[C@@H](O)C#Cc1nn(Cc2cc3ccccc3nc2N2CCCC2)c2ncnc(N)c12` [Compound 41], for which the 50% inhibitory concentration (IC50) is less than 100 nM.

Compound `Nc1cc(-c2nn(Cc3cc4ccccc4nc3-c3ccccc3F)c3ncnc(N)c23)ccn1` [Compound 172] yielded an IC50 greater than 1000 nM.

For the compound `CN(C)c1ncccc1Cn1nc(-c2cccc(O)c2)c2c(N)ncnc21` [Compound 122], the IC50 was greater than 1000 nM.

Turning to `Nc1ncnc2c1c(-c1cc(O)cc(F)c1)nn2Cc1cc2ccccc2nc1NC1CCCC1` [Compound 33], the half-maximal inhibitory concentration (IC50) is 100 to 1000 nM.

The compound `Cc1ccccc1-c1ncccc1Cn1nc(-c2cccc(O)c2)c2c(N)ncnc21` [Compound 120] had an IC50 greater than 1000 nM.

Another test deals with p110α/p85α (Homo sapiens (Human), UniProt P42336). The experiment in a line: PI3K α inhibition assay (TLC lipid kinase or HTRF). Type of test: biochemical.
Sequence of p110α/p85α (P42336 whole entry): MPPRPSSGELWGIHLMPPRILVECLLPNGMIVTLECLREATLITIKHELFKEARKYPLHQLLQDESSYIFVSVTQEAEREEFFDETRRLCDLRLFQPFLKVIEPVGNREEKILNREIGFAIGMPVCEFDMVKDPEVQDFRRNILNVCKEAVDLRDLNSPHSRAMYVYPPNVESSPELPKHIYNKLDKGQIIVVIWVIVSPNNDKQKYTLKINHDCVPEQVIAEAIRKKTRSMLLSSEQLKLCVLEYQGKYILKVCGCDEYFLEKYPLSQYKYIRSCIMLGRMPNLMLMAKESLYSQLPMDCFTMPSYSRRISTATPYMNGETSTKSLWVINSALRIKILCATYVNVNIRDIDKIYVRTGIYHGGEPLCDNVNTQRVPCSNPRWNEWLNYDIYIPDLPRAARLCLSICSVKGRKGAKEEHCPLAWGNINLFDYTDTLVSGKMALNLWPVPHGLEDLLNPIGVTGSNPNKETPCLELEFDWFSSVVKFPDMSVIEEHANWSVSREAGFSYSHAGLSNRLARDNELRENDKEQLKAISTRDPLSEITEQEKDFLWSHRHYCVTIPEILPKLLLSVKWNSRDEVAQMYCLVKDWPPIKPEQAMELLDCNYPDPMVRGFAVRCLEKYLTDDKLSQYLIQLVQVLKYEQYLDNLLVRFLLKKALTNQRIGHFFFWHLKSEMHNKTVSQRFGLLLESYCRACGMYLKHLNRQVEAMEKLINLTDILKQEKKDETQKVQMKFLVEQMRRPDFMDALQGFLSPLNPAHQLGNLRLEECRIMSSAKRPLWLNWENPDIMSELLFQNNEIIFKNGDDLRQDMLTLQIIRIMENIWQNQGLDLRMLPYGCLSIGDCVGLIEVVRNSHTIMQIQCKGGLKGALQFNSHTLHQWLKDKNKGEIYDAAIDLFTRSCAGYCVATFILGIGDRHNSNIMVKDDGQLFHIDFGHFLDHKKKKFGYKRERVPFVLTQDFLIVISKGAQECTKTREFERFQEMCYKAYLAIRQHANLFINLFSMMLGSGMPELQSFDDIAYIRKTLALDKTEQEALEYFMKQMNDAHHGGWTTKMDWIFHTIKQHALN
Sequence of p110α/p85α (P27986 whole entry partner): as the sequence (P27986 whole entry partner) above
Conditions: not given
The procedure:
as §1, §2
In turn, `Nc1cc(-c2nn(Cc3cc4ccccc4nc3-c3ccccc3)c3ncnc(N)c23)ccn1` [Compound 173] came in with an IC50 greater than 1000 nM.

On to `CC(=O)Nc1nc2ccc(-c3nn(Cc4cc5ccccc5nc4-n4ccnc4C)c4ncnc(N)c34)cc2s1` [Compound 170], for which the concentration for half-maximal inhibition (IC50) was greater than 1000 nM.

For the compound `CC(c1cc2ccccc2nc1N1CCN(C)CC1)n1cnc2c(N)ncnc21` (stereo not drawn) [Compound 89], the IC50 was greater than 1000 nM.

`Nc1ncc(-c2nn(Cc3cc4ccccc4nc3-c3ccccc3)c3nccc(N)c23)cn1` [Compound 160] gave a half-maximal inhibitory concentration (IC50) greater than 1000 nM.

On to `CCC(c1cc2ccccc2nc1N1CCN(C)CC1)n1cnc2c(N)ncnc21` (stereo not drawn) [Compound 90], for which the half-inhibitory concentration (IC50) is greater than 1000 nM.

For the compound `NC(=O)/C=C/c1nn(Cc2cc3ccccc3nc2-c2ccccc2F)c2ncnc(N)c12` [Compound 194], the IC50 was greater than 1000 nM.

`CC(=O)Nc1nc2ccc(-c3nn(Cc4cc5ccccc5nc4-c4ccccc4F)c4ncnc(N)c34)cc2[nH]1` [Compound 183] yielded an IC50 greater than 1000 nM.

On to `N#Cc1nn(Cc2cc3ccccc3nc2-c2ccccc2F)c2ncnc(N)c12` [Compound 189], for which the concentration for half-maximal inhibition (IC50) is greater than 1000 nM.

Regarding `Nc1cc(-c2nn(Cc3cc4ccccc4nc3-c3ccccc3F)c3ncnc(N)c23)ccn1` [Compound 172], the IC50 was greater than 1000 nM.

Another test addresses p110β/p85α (Homo sapiens, UniProt P42338). The experiment in a line: PI3K β inhibition assay (TLC lipid kinase or HTRF). Format: biochemical. Conditions: read-out: PI3K β IC50. The procedure:
as §1, §2
Consider `Nc1cc(-c2nn(Cc3cc4ccccc4nc3-c3ccccc3)c3ncnc(N)c23)ccn1` [Compound 173], for which the concentration for half-maximal inhibition (IC50) was greater than 1000 nM.

On to `CC(=O)Nc1nc2ccc(-c3nn(Cc4cc5ccccc5nc4-n4ccnc4C)c4ncnc(N)c34)cc2s1` [Compound 170], for which the 50% inhibitory concentration (IC50) is greater than 1000 nM.

On to `CC(c1cc2ccccc2nc1N1CCN(C)CC1)n1cnc2c(N)ncnc21` (stereo not drawn) [Compound 89], for which the IC50 was greater than 1000 nM.

Regarding `Nc1ncc(-c2nn(Cc3cc4ccccc4nc3-c3ccccc3)c3nccc(N)c23)cn1` [Compound 160], the IC50 was greater than 1000 nM.

Take `CCC(c1cc2ccccc2nc1N1CCN(C)CC1)n1cnc2c(N)ncnc21` (stereo not drawn) [Compound 90]: the concentration for half-maximal inhibition (IC50) was greater than 1000 nM.

Take `NC(=O)/C=C/c1nn(Cc2cc3ccccc3nc2-c2ccccc2F)c2ncnc(N)c12` [Compound 194]: the concentration for half-maximal inhibition (IC50) was greater than 1000 nM.

As for `N#Cc1nn(Cc2cc3ccccc3nc2-c2ccccc2F)c2ncnc(N)c12` [Compound 189], the IC50 is greater than 1000 nM.

Take `Nc1cc(-c2nn(Cc3cc4ccccc4nc3-c3ccccc3F)c3ncnc(N)c23)ccn1` [Compound 172]: the IC50 was greater than 1000 nM.

For another test, the target named is p110γ (Homo sapiens (Human), UniProt P48736). The experiment in a line: PI3K γ inhibition assay (TLC lipid kinase or HTRF). Type of test: biochemical.
Sequence of p110γ (P48736 whole entry): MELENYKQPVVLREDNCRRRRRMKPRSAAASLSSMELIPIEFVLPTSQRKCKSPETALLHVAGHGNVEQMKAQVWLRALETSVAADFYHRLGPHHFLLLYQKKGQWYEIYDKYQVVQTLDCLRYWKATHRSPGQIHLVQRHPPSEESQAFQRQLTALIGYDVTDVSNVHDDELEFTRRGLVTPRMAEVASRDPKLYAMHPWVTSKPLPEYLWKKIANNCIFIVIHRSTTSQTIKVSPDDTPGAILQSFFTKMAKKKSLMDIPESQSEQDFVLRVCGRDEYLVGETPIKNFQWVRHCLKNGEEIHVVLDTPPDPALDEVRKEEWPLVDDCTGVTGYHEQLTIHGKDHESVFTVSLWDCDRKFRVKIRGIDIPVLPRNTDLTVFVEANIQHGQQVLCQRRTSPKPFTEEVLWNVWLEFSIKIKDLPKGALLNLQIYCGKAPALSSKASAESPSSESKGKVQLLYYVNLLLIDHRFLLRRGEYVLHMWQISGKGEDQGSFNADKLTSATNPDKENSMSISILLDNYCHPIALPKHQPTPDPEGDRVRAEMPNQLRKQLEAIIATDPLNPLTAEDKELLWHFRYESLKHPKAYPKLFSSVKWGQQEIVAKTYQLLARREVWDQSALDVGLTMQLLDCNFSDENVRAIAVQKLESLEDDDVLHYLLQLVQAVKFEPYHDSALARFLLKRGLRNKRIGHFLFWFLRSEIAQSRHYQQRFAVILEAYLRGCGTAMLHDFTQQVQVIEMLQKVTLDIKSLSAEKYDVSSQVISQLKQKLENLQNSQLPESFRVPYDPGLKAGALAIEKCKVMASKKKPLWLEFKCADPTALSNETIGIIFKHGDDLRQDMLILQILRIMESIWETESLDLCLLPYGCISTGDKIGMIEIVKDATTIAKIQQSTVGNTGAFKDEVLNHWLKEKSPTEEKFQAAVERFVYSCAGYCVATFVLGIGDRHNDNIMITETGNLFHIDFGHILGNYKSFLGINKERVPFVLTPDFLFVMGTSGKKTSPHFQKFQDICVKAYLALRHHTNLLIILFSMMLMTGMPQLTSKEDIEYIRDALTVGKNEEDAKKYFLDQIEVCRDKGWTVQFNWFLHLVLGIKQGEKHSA
Conditions: not given
The procedure: as §1, §2
On to `CCC(c1cc2ccccc2nc1-c1ccccc1)n1cnc2c(N)ncnc21` (stereo not drawn) [Compound 37], for which the IC50 was greater than 1000 nM.

`CC(=O)Nc1nc2ccc(-c3nn(Cc4cc5ccccc5nc4-n4ccnc4C)c4ncnc(N)c34)cc2s1` [Compound 170] returned a half-inhibitory concentration (IC50) of 100 to 1000 nM.

As for `CC(c1cc2ccccc2nc1N1CCN(C)CC1)n1cnc2c(N)ncnc21` (stereo not drawn) [Compound 89], the IC50 is greater than 1000 nM.

Regarding `CCC(c1cc2ccccc2nc1N1CCN(C)CC1)n1cnc2c(N)ncnc21` (stereo not drawn) [Compound 90], the IC50 was greater than 1000 nM.

In the case of `C[C@@H](O)C#Cc1nn(Cc2nc3ccccc3nc2N2CCCC2)c2ncnc(N)c12` [Compound 106], the IC50 was greater than 1000 nM.

In the case of `NC(=O)/C=C/c1nn(Cc2cc3ccccc3nc2-c2ccccc2F)c2ncnc(N)c12` [Compound 194], the IC50 is greater than 1000 nM.

In turn, `CC(=O)Nc1nc2ccc(-c3nn(Cc4cc5ccccc5nc4-c4ccccc4F)c4ncnc(N)c34)cc2[nH]1` [Compound 183] registered an IC50 of 100 to 1000 nM.

Take `Nc1ncnc2c1c(-c1cccnc1)nn2Cc1cc2ccccc2nc1N1CCCC1` [Compound 62]: the IC50 lay in the range of 100 to 1000 nM.

The values above are taken from patent US9790228B2, “Heterocyclic kinase inhibitors” (Intellikine LLC, priority 2008, dated 2017).
